≈ marks a conversion by molar mass, not a printed value.
What was measured:
Format in all cases: functional
[1] = test system: Mycobacterium tuberculosis; assay: Growth inhibition of Mycobacterium tuberculosis H37Ra Lehmann and Neumann ATCC 25177 harboring pSMT1 luciferase reporter at 1 uM after 6 days by luminescence based serial dilution method relative to control; conditions: H37Ra Lehmann and Neumann ATCC 25177, 144 h, read-out: GI
[2] = test system: Mycobacterium tuberculosis; assay: Growth inhibition of Mycobacterium tuberculosis H37Ra Lehmann and Neumann ATCC 25177 harboring pSMT1 luciferase reporter at 10 uM after 6 days by luminescence based serial dilution method relative to control; conditions: H37Ra Lehmann and Neumann ATCC 25177, 144 h, read-out: GI
[3] = test system: Mycobacterium tuberculosis; assay: Growth inhibition of Mycobacterium tuberculosis H37Ra Lehmann and Neumann ATCC 25177 harboring pSMT1 luciferase reporter at 0.1 uM after 6 days by luminescence based serial dilution method relative to control; conditions: H37Ra Lehmann and Neumann ATCC 25177, 144 h, read-out: GI
[4] = test system: Mycobacterium tuberculosis; assay: Antimycobacterial activity against Mycobacterium tuberculosis H37Ra Lehmann and Neumann ATCC 25177 harboring pSMT1 luciferase reporter after 6 days by luminescence based serial dilution method; conditions: H37Ra Lehmann and Neumann ATCC 25177, 144 h

Structure (SMILES) | inhibition of growth at 1 µM [1] | inhibition of growth at 10 µM [2] | inhibition of growth at 0.1 µM [3] | MIC90 [4]
COc1ccc2c(O)c(-c3ccccc3)c(=O)[nH]c2c1 | 74.4% | 98.2% | 56.5% | 9.1 µM (≈ 2.43 µg/mL)
Oc1nc2ccccc2c(O)c1-c1ccccc1 | 59.2% | 92.4% | 56% | 8.5 µM (≈ 2.02 µg/mL)
Cc1ccc2[nH]c(=O)c(-c3ccccc3)c(O)c2c1 | 51.2% | 92.3% | 36.2% | 8 µM (≈ 2.01 µg/mL)
CC12CCC(c3c(O)c(-c4ccccc4)c(=O)n(-c4ccccc4)c31)C2(C)C (racemic) | 8.1% | 12.5% | 0% | –
CC(=O)Oc1c(C)c(=O)[nH]c2ccccc12 | 31.8% | 45.2% | 19.2% | –
COc1ccc2[nH]c(=O)c(-c3ccccc3)c(OC(C)=O)c2c1 | 43.2% | 79.6% | 22.5% | –
O=c1[nH]c2ccc(F)cc2c(O)c1-c1ccccc1 | 42.6% | 99.5% | 35.1% | 3.2 µM (≈ 0.817 µg/mL)
CCCCc1c(O)c2ccccc2n(C)c1=O | 10.5% | 23.9% | 0% | –
O=c1c(Cc2ccccc2)c(O)c2ccccc2n1-c1ccccc1 | 54.7% | 56.3% | 20.3% | –
CCc1c(OC(C)=O)c2cc(F)ccc2[nH]c1=O | 14% | 44.5% | 0% | –
CCc1c(O)c2cccc(OC)c2[nH]c1=O | 66.4% | 71% | 65.8% | –
CCc1c(O)c2cc(F)ccc2[nH]c1=O | 51.3% | 57.3% | 40% | –
CCn1c(=O)c(-c2ccccc2)c(O)c2ccccc21 | 0% | 8.2% | 0% | –
CC(=O)Oc1c(-c2ccccc2)c(=O)[nH]c2ccccc12 | 35.4% | 72.3% | 10.9% | –
CO[C@H]1/C=C/O[C@@]2(C)Oc3c(C)c(O)c4c(O)c(c(/C=N/N5CCN(C)CC5)c(O)c4c3C2=O)NC(=O)/C(C)=C\C=C\[C@H](C)[C@H](O)[C@@H](C)[C@@H](O)[C@@H](C)[C@H](OC(C)=O)[C@@H]1C [RIFAMPIN] | – | – | – | 0.1 µM (≈ 0.0823 µg/mL)
Cc1c(O)c2ccccc2n(C)c1=O | 32.9% | 83.8% | 4% | –
Cn1c(=O)c(-c2ccccc2)c(O)c2ccccc21 | 49.5% | 87.2% | 29.8% | –
CCc1c(O)c2ccccc2[nH]c1=O | 78.2% | 98.6% | 59.2% | –
CCc1c(O)c2ccc(OC)cc2[nH]c1=O | 36% | 60.8% | 23.7% | –
CCc1c(OC(C)=O)c2ccc(OC)cc2[nH]c1=O | 15.3% | 28.6% | 0% | –
CCc1c(O)c2ccc(O)cc2[nH]c1=O | 34.3% | 49.4% | 25.6% | –
Cc1cc2[nH]c(=O)c(-c3ccccc3)c(O)c2cc1C | 48.3% | 90.7% | 32.5% | 9.2 µM (≈ 2.44 µg/mL)
O=c1c(-c2ccccc2)c(O)c2ccccc2n1Cc1ccccc1 | 42.4% | 71.5% | 31.2% | –
CCc1c(O)c2c(C)ccc(C)c2[nH]c1=O | 46.4% | 86.2% | 16.9% | –
CCc1c(OC(C)=O)c2cccc(OC)c2[nH]c1=O | 13.3% | 31.2% | 0% | –
CCCCc1c(O)c2cc(OC)cc(OC)c2[nH]c1=O | 10.7% | 62.6% | 0% | –
CCCCc1c(O)c2ccccc2n(Cc2ccccc2)c1=O | 25.3% | 33.2% | 20.9% | –

Structure (SMILES) | inhibition of growth at 1 µM [1] | inhibition of growth at 10 µM [2] | inhibition of growth at 0.1 µM [3] | MIC90 [4]
CCCc1c(O)c2ccccc2n(-c2ccccc2)c1=O | 46.3% | 56.6% | 10.4% | –
CCc1c(O)c2cc(OC)ccc2[nH]c1=O | 56.3% | 68.2% | 0% | –
CCc1c(OC(C)=O)c2cc(OC)ccc2[nH]c1=O | 10.1% | 27.8% | 0% | –
Oc1nc2ccccc2c(O)c1Cc1ccccc1 | 40.2% | 53.5% | 7.5% | –
CCc1c(OC(C)=O)c2ccccc2[nH]c1=O | 9.4% | 29.4% | 3.5% | –
O=c1c(-c2ccccc2)c(O)c2ccccc2n1-c1ccccc1 | 53.7% | 98.3% | 30.1% | 6.4 µM (≈ 2.01 µg/mL)
CC(C)c1c(O)c2ccccc2[nH]c1=O | 47.4% | 69.3% | 42.5% | –
O=c1[nH]c2c(O)cccc2c(O)c1-c1ccccc1 | 67.1% | 95.3% | 60% | 8.3 µM (≈ 2.1 µg/mL)
CCCCc1c(O)c2c(n(-c3ccccc3)c1=O)C1(C)CCC2C1(C)C (racemic) | 1.2% | 7.5% | 0% | –
CCc1c(O)c2ccccc2n(-c2ccccc2)c1=O | 34.8% | 25.6% | 22.5% | –
O=c1[nH]c2ccc(O)cc2c(O)c1-c1ccccc1 | 52.1% | 95.1% | 32.3% | 8.3 µM (≈ 2.1 µg/mL)
NNC(=O)c1ccncc1 [ISONIAZID] | – | – | – | 0.3 µM (≈ 0.0411 µg/mL)
O=c1c(Cc2ccccc2)c(O)c2ccccc2n1Cc1ccccc1 | 38.8% | 49.5% | 24.8% | –
COc1cccc2c(OC(C)=O)c(-c3ccccc3)c(=O)[nH]c12 | 32.5% | 76.3% | 8.9% | –
CCc1c(O)c2c(Cl)ccc(C)c2[nH]c1=O | 48.8% | 55.1% | 33.3% | –
CCCCc1c(O)c2c(Cl)ccc(C)c2[nH]c1=O | 38.7% | 59.1% | 30% | –
CCCCc1c(O)c2ccccc2n(-c2ccccc2)c1=O | 46.3% | 47.3% | 34.4% | –
CC(=O)Oc1cc(=O)[nH]c2ccccc12 | 21.1% | 35.4% | 14.5% | –
COc1ccc2[nH]c(=O)c(-c3ccccc3)c(O)c2c1 | 24.5% | 90.8% | 9.4% | 8.7 µM (≈ 2.33 µg/mL)
Cc1c(O)c2ccccc2n(-c2ccccc2)c1=O | 48.5% | 74.5% | 36% | –
COc1ccc2c(OC(C)=O)c(-c3ccccc3)c(=O)[nH]c2c1 | 39.7% | 81.2% | 20.9% | –
CCCCc1c(O)c2cc(Cl)ccc2[nH]c1=O | 35.4% | 64.8% | 21.6% | –
CCCc1c(O)c2cc(F)ccc2[nH]c1=O | 38.5% | 78.2% | 13.2% | –
Cc1c(O)c2ccccc2[nH]c1=O | 46.6% | 55.5% | 43.6% | 6.8 µM (≈ 1.19 µg/mL)
CC(=O)Oc1c(-c2ccccc2)c(=O)[nH]c2ccc(F)cc12 | 38% | 99.2% | 31% | 3.8 µM (≈ 1.13 µg/mL)
COc1cccc2c(O)c(-c3ccccc3)c(O)nc12 | 47.5% | 95% | 42.5% | 7.9 µM (≈ 2.11 µg/mL)
O=c1[nH]c2cc(O)ccc2c(O)c1-c1ccccc1 | 61.7% | 96.3% | 53.7% | 8.2 µM (≈ 2.08 µg/mL)

From ChEMBL document CHEMBL4118082 (Eur J Med Chem, 2017)
